Experimental data as given in patent US5945507A, “Antimicrobial peptides” (University of Pittsburgh, priority 1997, dated 1999).
“Also recorded” adds a separate entry of the source. Where two headings read alike, the source gives them in different places. Bridge positions count the residues as written; N and C are the ends. Ends that are not written are not given here. I, II: the chains in the order shown.

Tests used:
S. aureus [1] = type: cell-based, Staphylococcus aureus; conditions: for MBC50: in µM; for antibacterial activity (in words): S. aureus
Description: Bacterial lysis assay. Bacterial lysis assays were conducted in a manner similar to that described previously (Lehrer, R. I., M. E. Selsted, D. Szklarek, and F. J. 1983. Infect. Immun. 42:10-14, 1983; Miller, M. A., R. F. Garry, J. M. Jaynes, and R. C. Montelaro, AIDS Res Hum Retroviruses 7:511-519, 1991). Bacterial suspensions were cultured in Luria Broth to mid-log growth phase and washed by several cycles of centrifugation and resuspension in 10 mM phosphate buffer. The A600 of the suspension was adjusted with 10 mM phosphate buffer such that, upon dilution, 5-10×10^5 CFU/ml would be treated in the assay. Bacteria were incubated with two-fold dilutions of peptides (32-0.1 μM in 96-well plates in 10 mM phosphate buffer, pH 7.2, for 1 hour. Ten-fold dilutions were performed to a dilution of 1:1000; a 100-μl aliquot from each condition was plated on tryptic soy agar (Difco, Detroit, Mich.) and the plates were incubated overnight. Colonies of surviving bacteria (colony-forming units) were counted and compared to untreated controls to determine the amount of peptide-induced killing under each condition. Log killing is defined as the log of the ratio of CFUs present before and after treatment with peptide. Complete killing is indicated where there were zero colonies per 100-μl aliquot of undiluted bacteria-peptide mixture.
Calculation of MBC. […] The minimal bactericidal concentration, MBC, is the peptide concentration at which 99.9% (3 logs) killing is achieved (Pearson et al., Antimicrob. Agents Chemother. 18:699-708, 1980). The MBC50 is the peptide concentration at which 50% killing is achieved.

[2] = tested on: human red blood cells (RBC); type: cell-based; conditions: for % lysis at 100 μM: erythrocytes, 100 μM peptide; for hemolytic activity (in words): red blood cells; for hemolytic activity: red cells of human, 100 μM
Source text: Erythrocyte Lysis Assay. Peptides were screened for hemolytic activity by treating freshly isolated human red blood cells (RBC) with various concentrations of peptides, centrifuging the samples to pellet intact cells, and measuring the amount of hemoglobin in the supernatant to determine the extent of RBC lysis under each condition. The method used is essentially that described by Srinivas et al. (J. Biol. Chem. 267:7121-7127, 1992) with the following modifications: peptide concentrations of 0.1-100 μM were tested, the incubation period was 1 hour at 37° C., and the A570 was measured in duplicate wells of a 96-well plate. A calibration curve was constructed by treating various amounts of red blood cells (0, 20,40, 60, 80, and 100% of the volume of RBC used in test samples) with plain water, which completely lyses the cells. The standard curve was used to calculate the percent lysis at each peptide concentration.

S. aureus [3] = experiment: Kinetics of bacterial killing, S. aureus; type: cell-based, Staphylococcus aureus; conditions: 10 μM peptide, FIG. 5
Description: Kinetics of Bacterial Killing. The time course of the cytolytic activity of a peptide was determined by a modification of the above procedure, where a volume of appropriately diluted bacteria was treated with 1-10 μM peptide; aliquots of this mixture were removed every 10 seconds and diluted 1:2 in 2× Luria Broth; each resulting suspension was subsequently plated on agar as described above. The number of colonies visible upon incubation for each time point was used to calculate a rate of killing by the peptide.

[4] = Table 4, peptide concentration (closest 2-fold dilution) reducing CFU/ml by 50%
[5] = Table 4, peptide concentration (closest 2-fold dilution) reducing CFU/ml by 99.9%, 1 hour
[6] = Table 7, substitution analogs, 50% reduction of CFU/ml
[7] = Table 7, substitution analogs, 99.9% reduction of CFU/ml
[8] = Table 6, truncated analogs, 50% reduction of CFU/ml
[9] = Table 6, truncated analogs, 99.9% reduction of CFU/ml

Substance | % lysis at 100 μM ([2]; Table 7) | MBC50 (S. aureus [1]; [6]) | MBC (S. aureus [1]; [7]) | hemolytic activity (in words) [2] | antibacterial activity (in words) (S. aureus [1]) | further results
DLWETLRRGGRWILAIPRRIRQGLELTL [SLP1] | – | – | – | – | – | MBC50 (S. aureus [1]; [4]): 8; MBC (S. aureus [1]; [5]): > 16 µM
FLIRQLIELLTWLFSNCRTLLSEVY [SLP2A1, engineered analog of SLP2A] | 7% | > 32 | > 32 µM | – | – | –
FLIRQLIRLLTWLFSNCRTLLSRVY [SLP2A, SIVMM239 771-795] | – | – | – | rather hemolytic | highly active | MBC50 (S. aureus [1]; [4]): 4; MBC (S. aureus [1]; [5]): > 32 µM
GACRAIRHIPRRIR [LP14] | – | – | – | virtually no hemolytic activity | high level of antibacterial activity | hemolytic activity [2]: less than 10%; MBC50 (S. aureus [1]; [8]): 2.5; MBC (S. aureus [1]; [9]): 10 µM
I: RVIEVVQGACRAIRHIPRRIRQGLERIL / II: RVIEVVQGACRAIRHIPRRIRQGLERIL (disulfide I:10-II:10) [bis-LLP1] | – | – | – | – | – | % lysis at 100 μM ([2]; Table 8): 100%
LLSEVYQILQPILQELSATLQRIREVLR [SLP2B1, engineered analog of SLP2B] | 10% | > 32 | > 32 µM | – | – | –
LLSRVYQILQPILQRLSATLQRIREVLR [SLP2B, SIVMM239 790-817] | – | – | – | – | highly active | MBC50 (S. aureus [1]; [4]): .25; MBC (S. aureus [1]; [5]): 1 µM
RIAGYGLRGLAVIIRICIRGLNLIFEIIR [ELP, EIAV 808-836 (Wyoming)] | – | – | – | high hemolytic activity; also recorded: highly hemolytic | absence of measurable bactericidal activity; also recorded: little antibacterial activity | MBC50 (S. aureus [1]; [4]): > 10; MBC (S. aureus [1]; [5]): > 10 µM
RVIEVVQGACRAIEHIPRRIEQGLERIL [Analog 3, engineered analog of LLP1] | < 5% | > 80 | > 80 µM | devoid of activity | devoid of activity | –
RVIEVVQGACRAIEHIPRRIRQGLERIL [Peptide R841E, engineered analog of LLP1] | 30% | 10-20 | 40 to 80 µM | reducing both the antibacterial and hemolytic activity | reducing both the antibacterial and hemolytic activity | –
RVIEVVQGACRAIRHIPRRIEQGLERIL [Peptide R848E, engineered analog of LLP1] | 10% | 20 | 80 µM | reducing both the antibacterial and hemolytic activity | reducing both the antibacterial and hemolytic activity | –
RVIEVVQGACRAIRHIPRRIR [LP21] | – | – | – | virtually no hemolytic activity | high level of antibacterial activity | hemolytic activity [2]: less than 10%; MBC50 (S. aureus [1]; [8]): 2.5; MBC (S. aureus [1]; [9]): 10 µM
RVIEVVQGACRAIRHIPRRIRGQLERIL [LLP1-Am, LLP1 with chemically modified cysteine] | – | – | – | – | – | % lysis at 100 μM ([2]; Table 8): 15%; MBC50 (S. aureus [1]; Table 8, cysteine substitution analogs, 50% reduction of CFU/ml): 5; MBC (S. aureus [1]; Table 8, cysteine substitution analogs, 99.9% reduction of CFU/ml): 20 µM
RVIEVVQGACRAIRHIPRRIRQGLERIL [LLP1] | – | – | – | Below 10 μM very little lysis is observed | – | % lysis at 100 μM ([2]; Table 8): 100%; hemolytic LD50 ([2]; text b508): 20 to 40 µM; killing within one minute (S. aureus [3]): over 99.99%
RVIEVVQGACRAIRHIPRRSRQGLERIL [Peptide I847S, engineered analog of LLP1] | < 10% | 5 | 20 µM | significantly reduced | reduces antibacterial activity | –
RVIEVVQGACRASRHIPRRIRQGLERIL [Peptide I840S, engineered analog of LLP1] | < 10% | 2.5 | 10 to 20 µM | significantly reduced | reduces antibacterial activity | –
RVIRVVQGACRAIRHIPRRIRQGLRRIL [Analog 5, engineered analog of LLP1] | 100% | 0.3 | 2.5 µM | very high antibacterial and hemolytic activity | very high antibacterial and hemolytic activity | –
VVQGACRAIRHIPRRIR [LP17] | – | – | – | virtually no hemolytic activity | high level of antibacterial activity | hemolytic activity [2]: less than 10%; MBC50 (S. aureus [1]; [8]): 5; MBC (S. aureus [1]; [9]): 20 µM
YHRLRDLLLIVTRIVELLGRR [LLP2, HIVHXB2R 768-788] | – | – | – | – | highly active | MBC50 (S. aureus [1]; [4]): 1; MBC (S. aureus [1]; [5]): 4 µM
